Laboratory results as given in ChEMBL document CHEMBL3046336, “Assessment of the impact of insecticides on Anagrus nilaparvatae (Pang et Wang) (Hymenoptera: Mymanidae), an egg parasitoid of the rice planthopper, Nilaparvata lugens (Hemiptera: Delphacidae)” (Crop Prot, 2008).

Experiments:
[1] = Acute contact toxicity against adult Anagrus nilaparvatae assessed as dead parasitoid wasps compound treated for 1 hr measured after 8 hr wash-out period
[2] = Acute oral toxicity against female adult Anagrus nilaparvatae in petridish under laboratory conditions assessed as mortality compound treated as emulsible concentrate with acetone and Triton X-100 measured after 1 to 8 hr; conditions: in vivo
[3] = Residual toxicity against compound treated rice leaves-fed adult Anagrus nilaparvatae assessed as mortality measured on day 0 post insecticide treatment to plant; conditions: in vivo, oral
[4] = Chronic toxicity against female adult Anagrus nilaparvatae in petridish under laboratory conditions assessed as reduction in longetivity compound treated as emulsible concentrate with acetone and Triton X-100 relative to untreated control; design: scale not given: the % may be the effect or the level left
[5] = Chronic toxicity against female adult Anagrus nilaparvatae in petridish under laboratory conditions assessed as reduction in fecundity compound treated as emulsible concentrate with acetone and […] relative to untreated control; design: scale not given: the % may be the effect or the level left
[6] = Residual toxicity against compound treated rice leaves-fed adult Anagrus nilaparvatae assessed as mortality measured on day 7 post insecticide treatment to plant; conditions: in vivo
[7] = Acute oral toxicity against female adult Anagrus nilaparvatae in petridish under laboratory conditions assessed as mortality compound treated as emulsible concentrate with acetone and Triton X-100 measured after 8 hr; conditions: in vivo
[8] = Acute oral toxicity against female adult Anagrus nilaparvatae in petridish under laboratory conditions assessed as mortality compound treated as emulsible concentrate with acetone and Triton X-100 measured after 2 hr; conditions: in vivo
[9] = Acute oral toxicity against female adult Anagrus nilaparvatae in petridish under laboratory conditions assessed as mortality compound treated as emulsible concentrate with acetone and Triton X-100 measured after 4 hr; conditions: in vivo

Compound	LC50 [1]	mortality at 7 day ([6]; oral)	mortality at 8 h [7]	also measured
CC[C@H](C)[C@H]1O[C@]2(C=C[C@@H]1C)C[C@@H]1C[C@@H](C/C=C(\C)[C@@H](O[C@H]3C[C@H](OC)[C@@H](O[C@H]4C[C@H](OC)[C@@H](O)[C@H](C)O4)[C@H](C)O3)[C@@H](C)/C=C/C=C3\CO[C@@H]4[C@H](O)C(C)=C[C@@H](C(=O)O1)[C@]34O)O2.CO[C@H]1C[C@H](O[C@H]2[C@H](C)O[C@@H](O[C@@H]3/C(C)=C/C[C@@H]4C[C@@H](C[C@]5(C=C[C@H](C)[C@@H](C(C)C)O5)O4)OC(=O)[C@@H]4C=C(C)[C@@H](O)[C@H]5OC/C(=C\C=C\[C@@H]3C)[C@]54O)C[C@@H]2OC)O[C@@H](C)[C@@H]1O [ABAMECTIN]	8.499 mgAi/L	–	–	–
CC(C)N1C(=O)N(c2ccccc2)CS/C1=N\C(C)(C)C [BUPROFEZIN]	> 1000 mgAi/L	–	–	mortality [2]: 29.4%; mortality at 0 day [3]: 1.1%
O=C(NC(=O)c1c(F)cccc1F)Nc1cc(Cl)c(Oc2ncc(C(F)(F)F)cc2Cl)c(Cl)c1 [CHLORFLUAZURON]	> 1000 mgAi/L	–	–	Activity [4]: 29%; mortality [2]: 4%; Activity [5]: 49%
CCOP(=S)(OCC)Oc1nc(Cl)c(Cl)cc1Cl [CHLORPYRIFOS]	0.002 mgAi/L	< 10%	100%	–
COP(=O)(OC)OC=C(Cl)Cl [DICHLORVOS]	15.946 mgAi/L	–	100%	mortality at 2 h [8]: 100%
N#Cc1nn(-c2c(Cl)cc(C(F)(F)F)cc2Cl)c(N)c1[S+]([O-])C(F)(F)F (configuration not stated) [FIPRONIL]	0.18 mgAi/L	50%	100%	–
Cc1cc(C)cc(C(=O)N(NC(=O)c2ccc3c(c2C)OC(C)C3)C(C)(C)C)c1 (configuration not stated) [FUXIAN]	> 1000 mgAi/L	–	–	Activity [4]: 29%; mortality [2]: 1.1%; Activity [5]: 47%
O=C(NC(=O)c1c(F)cccc1F)Nc1cc(Cl)c(OC(F)(F)C(F)F)c(Cl)c1 [HEXAFLUMURON]	> 1000 mgAi/L	–	–	Activity [4]: 24%; mortality [2]: 1.3%; Activity [5]: 28%
O=[N+]([O-])NC1=NCCN1Cc1ccc(Cl)nc1 [IMIDACLOPRID]	0.021 mgAi/L	80.7%	–	Activity [9]: Toxic; mortality at 0 day [3]: 97.6%
CNC(=O)Oc1ccccc1C(C)C [ISOPROCARB]	1.071 mgAi/L	–	–	Activity [9]: Toxic
COP(N)(=O)SC (configuration not stated) [METHAMIDOPHOS]	–	< 10%	100%	–
CCOc1ccc([Si](C)(C)CCCc2ccc(F)c(Oc3ccccc3)c2)cc1 [SILAFLUOFEN]	14.22 mgAi/L	1.1%	37.6%	–
CN1COCN(Cc2cnc(Cl)s2)/C1=N\[N+](=O)[O-] [THIAMETHOXAM]	0.52 mgAi/L	66.8%	–	Activity [9]: Toxic
CCOP(=S)(OCC)Oc1ncn(-c2ccccc2)n1 [TRIAZOPHOS]	1.253 mgAi/L	–	100%	mortality at 7 day [6]: 54.6%
